Laboratory results published in PubChem BioAssay (NCI).
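Where inhibition never reached the appropriate level, the endpoint shown equals the highest concentration tested. Otherwise, values were interpolated linearly from a five-concentration, 48-hour dose response in 96-well plates. GI50 is the concentration that inhibits growth by half. TGI denotes the concentration required for complete inhibition of growth.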

Legend:
Assay in all cases: NCI anticancer screen, dose series, 48 h
CAKI-1 renal = test system: CAKI-1 renal
LXFL 529 NSCLC = test system: LXFL 529 NSCLC
LOX IMVI melanoma = test system: LOX IMVI melanoma
IGROV1 ovarian = test system: IGROV1 ovarian
DLD-1 colon = test system: DLD-1 colon
SK-MEL-5 melanoma = test system: SK-MEL-5 melanoma
NCI-H460 lung = test system: NCI-H460 lung
EKVX NSCLC = test system: EKVX NSCLC
A549 NSCLC = test system: A549 NSCLC
UO-31 renal = test system: UO-31 renal
SF-268 CNS = test system: SF-268 CNS
ACHN renal = test system: ACHN renal
TK-10 renal = test system: TK-10 renal
COLO 205 colon = test system: COLO 205 colon
MOLT-4 leukemia = test system: MOLT-4 leukemia

Compound	TGI (CAKI-1 renal) [µM]	TGI (LXFL 529 NSCLC) [µM]	TGI (LOX IMVI melanoma) [µM]	TGI (IGROV1 ovarian) [µM]	TGI (DLD-1 colon) [µM]	TGI (SK-MEL-5 melanoma) [µM]	TGI (NCI-H460 lung) [µM]	TGI (EKVX NSCLC) [µM]	TGI (A549 NSCLC) [µM]	TGI (UO-31 renal) [µM]	TGI (SF-268 CNS) [µM]	TGI (ACHN renal) [µM]	TGI (TK-10 renal) [µM]	TGI (COLO 205 colon) [µM]	TGI (MOLT-4 leukemia) [µM]	GI50 (LXFL 529 NSCLC) [µM]	GI50 (DLD-1 colon) [µM]
COC(=O)C(=O)C1CCCCC(C2=NC3NN=C(N)N3C2=O)C1=O (stereo not given)	> 100	> 100	> 100	> 100	> 100	> 100	> 100	> 100	> 100	> 100	> 100	> 100	> 100	> 100	> 100	–	–
COc1cc(C2C(Cl)C(=O)N2NC(=O)Cc2ccccc2)ccc1O (stereo not given)	> 100	> 100	> 100	> 100	> 100	> 100	> 100	> 100	> 100	> 100	> 100	> 100	> 100	> 100	> 100	–	–
CC(C)(C)C(=O)[CH-]C(=O)C(F)(F)C(F)(F)C(F)(F)F.CC(C)(C)C(=O)[CH-]C(=O)C(F)(F)C(F)(F)C(F)(F)F.[O-]CC1OC(O)C(O)C(O)C1O.[O-]CC1OC(O)C(O)C(O)C1O.[Ti+4]	> 100	> 100	> 100	> 100	> 100	> 100	> 100	> 100	> 100	> 100	> 100	> 100	> 100	> 100	> 100	71.4	67.4
O=C1C2Nc3ccccc3SC2C(=O)N1c1cccc([N+](=O)[O-])c1 (stereo not given)	> 100	> 100	> 100	> 100	> 100	> 100	> 100	> 100	> 100	> 100	> 100	> 100	> 100	> 100	> 100	–	–
Nc1ccc(C(=O)NN2C(=O)C(Cl)C2c2cccc([N+](=O)[O-])c2)cc1 (stereo not given)	36	34.9	25.1	30.8	34.7	34.3	> 100	47.7	> 100	31.3	38.6	50.9	35.3	35	37.5	–	–
CCCCCC(=O)Cc1cc(OC)cc2c1C(=O)Oc1cc(O)c(C(=O)O)c(CC(=O)CCCCC)c1O2	> 100	> 100	> 100	> 100	> 100	> 100	> 100	> 100	> 100	–	> 100	> 100	> 100	> 100	> 100	–	–
Cn1c2c(cc(-c3ccccc3)c1=O)COc1ccccc1-2	> 100	> 100	31.3	> 100	> 100	39.9	70.7	> 100	> 100	63.3	> 100	91.9	–	> 100	47.2	–	–
C=C1CC(C/C=C(\C)CC2CC(=C)C(=O)O2)OC1=O (stereo not given)	> 100	> 100	> 100	> 100	> 100	> 100	> 100	> 100	> 100	> 100	> 100	> 100	> 100	> 100	> 100	–	–
CCCOCN1COCN=C1NC#N	> 100	> 100	47.5	> 100	> 100	> 100	> 100	> 100	> 100	> 100	> 100	> 100	> 100	32.6	> 100	–	–
C/C(CN1C(=O)c2ccccc2C1=O)=N\NS(=O)(=O)c1ccc(F)cc1	> 100	> 100	> 100	> 100	> 100	> 100	> 100	> 100	> 100	> 100	> 100	> 100	> 100	> 100	> 100	–	–
CO[C@@]12CC(=O)/C(=C(O)\C=C\c3ccccc3)C(=O)[C@]1(OC)Cc1ccccc1O2	–	> 100	> 100	> 100	> 100	> 100	88.1	> 100	88.8	> 100	91.1	74.2	73.4	> 100	96	–	–
CCOC(=O)c1c(C(F)(F)F)oc2c1ccc1nc3nonc3nc12	27.3	27.2	31.8	55.7	28.6	26.7	49.6	33.3	35	33.4	38.6	29.4	36.4	55.1	12.6	–	–
O=C(Nc1cc(Cl)c(Cl)cc1Cl)C(=O)C(C(=O)c1ccc2ccccc2c1)C1OC(=O)c2ccccc21 (stereo not given)	–	22.6	39.8	44.7	32.9	24.4	25.9	36.6	81.5	33.5	–	39.9	–	69.2	–	–	–
